Results as given in patent US9394297B2, “Amides as pim inhibitors” (AMGEN INC., priority 2012, dated 2016).
Like-named read-outs stand apart in the source and are kept apart here.

How the values were obtained:
[1] = target: T1, Pim-1 (Homo sapiens (Human), UniProt P11309); assay: Pim-Mn enzyme assay (HTRF, 384-well), Pim-1; format: biochemical; details: read-out: Pim-1-Mn IC50 IP
[2] = system: KMS-12-BM myeloma cell line; assay: Pim KMS-12 cell assay (phospho-BAD S112 / total BAD, MSD)
[3] = target: T1, Pim-1; assay: Pim enzyme assay (HTRF, 96-well), Pim-1; format: biochemical; details: full length recombinant Pim-1, biotinylated-BAD (S112) peptide, 10-point curve, 2 h RT, read-out: Pim-1 IC50 IP
Summary of the method: (§1)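 HTRF detection of biotinylated BAD (S112) phosphorylation by full-length recombinant His-tagged Pim-1 or Pim-2 in 60 mM Hepes pH 7.0, 0.05% BSA, 2 mM DTT at 22 °C: 2 h for Pim-1, 45 min for Pim-2. Stopped with EDTA; IC50 from 4-parameter logistic fit of percent of control.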

[4] = target: T2, Pim-2 (Homo sapiens (Human), UniProt Q9P1W9); assay: Pim enzyme assay (HTRF, 96-well), Pim-2; format: biochemical; details: full length recombinant Pim-2, biotinylated-BAD (S112) peptide, 10-point curve, 45 min RT, read-out: Pim-2 IC50 IP
Summary of the method: as §1

[5] = target: T2, Pim-2; assay: Pim-Mn enzyme assay (HTRF, 384-well), Pim-2; format: biochemical; details: read-out: Pim-2-Mn IC50 IP
[6] = Pim-1 enzyme 5 pM, ATP 1.5 μM, BAD (S112) 0.5 μM, HTRF, 22-point curve
[7] = Pim-2 enzyme 0.5 pM, ATP 1.5 μM, BAD (S112) 0.5 μM, HTRF, 22-point curve
[8] = Homo sapiens, KMS-12-BM, read-out: KMS-12-BM IC50 IP, KMS-12-BM cells, phospho-BAD (S112) vs total BAD, 1 hour 50 min with compound
[9] = Homo sapiens, KMS-12-BM, read-out: KMS-12-BM IC50 IP

T1 sequence (P11309 whole entry): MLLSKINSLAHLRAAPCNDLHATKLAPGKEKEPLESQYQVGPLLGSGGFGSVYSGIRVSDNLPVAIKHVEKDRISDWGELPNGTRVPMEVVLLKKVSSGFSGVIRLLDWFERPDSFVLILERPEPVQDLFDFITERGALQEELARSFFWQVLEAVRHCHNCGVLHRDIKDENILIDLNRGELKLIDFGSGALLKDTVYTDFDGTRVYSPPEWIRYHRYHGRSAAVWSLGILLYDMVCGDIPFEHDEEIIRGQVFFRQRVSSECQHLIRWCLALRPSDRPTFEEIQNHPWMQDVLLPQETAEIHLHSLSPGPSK
T2 sequence (Q9P1W9 whole entry): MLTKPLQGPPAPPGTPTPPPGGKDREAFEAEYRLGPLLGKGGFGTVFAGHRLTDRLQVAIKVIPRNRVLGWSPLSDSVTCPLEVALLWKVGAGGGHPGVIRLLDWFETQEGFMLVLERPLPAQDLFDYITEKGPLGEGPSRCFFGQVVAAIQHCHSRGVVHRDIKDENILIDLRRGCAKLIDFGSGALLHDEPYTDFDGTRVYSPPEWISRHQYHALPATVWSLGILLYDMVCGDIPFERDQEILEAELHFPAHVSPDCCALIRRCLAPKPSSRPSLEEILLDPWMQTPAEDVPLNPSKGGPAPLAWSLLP

SMILES | IC50 [1, 6] [nM] | IC50 ([2]; read-out: KMS-12-BM IC50 IP, KMS-12-BM cells, phospho-BAD (S112) vs total BAD, 1 hour 50 min with compound) [nM] | IC50 [3] [nM] | IC50 [4] [nM] | IC50 [5, 7] [nM] | IC50 [2, 8] [nM] | IC50 [1] [nM] | IC50 [5] [nM] | IC50 [2, 9] [nM]
Cc1nc2cccc(-c3cc4c([nH]3)CCNC4=O)c2nc1NC1CCC1 [Example 131, 2-(3-(cyclobutylamino)-2-methylquinoxalin-5-yl)-6,7-dihydro-1H-pyrrolo[3,2-c]pyridin-4(5H)-one] | 1.6 | – | 5 | 2.6 | 0.8 | 142 | – | – | –
Cc1nc2cccc(-c3cc4c([nH]3)CCNC4=O)c2nc1NC1(C)CCC1 [Example 144, 2-(2-methyl-3-((1-methylcyclobutyl)amino)quinoxalin-5-yl)-6,7-dihydro-1H-pyrrolo[3,2-c]pyridin-4(5H)-one] | 0.8 | – | 2 | 1.6 | 0.6 | 67.8 | – | – | –
Cc1nc2cccc(-c3cc4c([nH]3)CCNC4=O)c2nc1NC1CC(F)(F)C1 [Example 145, 2-(3-((3,3-difluorocyclobutyl)amino)-2-methylquinoxalin-5-yl)-6,7-dihydro-1H-pyrrolo[3,2-c]pyridin-4(5H)-one] | – | – | 14.2 | 8.9 | – | 971 | 8.7 | 4.6 | –
O=C1NCCc2[nH]c(-c3cccc4ccc(Cc5ccccc5)nc34)cc21 [Example 3, 2-(2-benzylquinolin-8-yl)-6,7-dihydro-1H-pyrrolo[3,2-c]pyridin-4(5H)-one] | – | – | 12.8 | 37 | – | – | – | – | 6100
CCN(c1ccccc1)c1ccc2cccc(-c3cc4c([nH]3)CCNC4=O)c2n1 [Example 14, 2-(2-(ethyl(phenyl)amino)quinolin-8-yl)-6,7-dihydro-1H-pyrrolo[3,2-c]pyridin-4(5H)-one] | – | – | 1.1 | 6 | – | 2340 | – | – | –
Cc1nc2cccc(-c3cc4c([nH]3)CCNC4=O)c2nc1NC1(C)COC1 [Example 197, 2-(2-methyl-3-((3-methyloxetan-3-yl)amino)quinoxalin-5-yl)-6,7-dihydro-1H-pyrrolo[3,2-c]pyridin-4(5H)-one] | – | – | 7.2 | 5.7 | – | 511 | – | – | –
O=C1NCCc2[nH]c(-c3cccc4ccc(Oc5ccccc5F)nc34)cc21 [Example 11, 2-(2-(2-fluorophenoxy)quinolin-8-yl)-6,7-dihydro-1H-pyrrolo[3,2-c]pyridin-4(5H)-one] | – | – | 6.1 | 10.3 | – | 7000 | – | – | –
O=C1NCCc2[nH]c(-c3cccc4ccc(Oc5ccccc5Cl)nc34)cc21 [Example 103, 2-(2-(2-chlorophenoxy)quinolin-8-yl)-6,7-dihydro-1H-pyrrolo[3,2-c]pyridin-4(5H)-one] | – | – | 8.1 | 18.1 | – | – | – | – | 7730
O=C1NCCc2[nH]c(-c3cccc4ccc(Nc5ccccc5)nc34)cc21 [Example 2, 2-(2-(phenylamino)quinolin-8-yl)-6,7-dihydro-1H-pyrrolo[3,2-c]pyridin-4(5H)-one] | – | – | 1.6 | 8 | – | – | – | – | 708
O=C1NCCc2[nH]c(-c3cccc4ncc(Nc5ccccc5)nc34)cc21 [Example 180, 2-(3-(phenylamino)quinoxalin-5-yl)-6,7-dihydro-1H-pyrrolo[3,2-c]pyridin-4(5H)-one] | – | – | 1.9 | 2.8 | – | 390 | – | – | –
O=C1NCCc2[nH]c(-c3cccc4ccc(Nc5cccc(F)c5)nc34)cc21 [Example 45, 2-(2-((3-fluorophenyl)amino)-8-quinolinyl)-1,5,6,7-tetrahydro-4H-pyrrolo[3,2-c]pyridin-4-one] | – | – | 1.5 | 7.7 | – | 1450 | – | – | –
O=C1NCCc2[nH]c(-c3cccc4ccc(Oc5c(F)cccc5F)nc34)cc21 [Example 176, 2-(2-(2,6-difluorophenoxy)quinolin-8-yl)-6,7-dihydro-1H-pyrrolo[3,2-c]pyridin-4(5H)-one] | – | – | 2.6 | 4.7 | – | 3580 | – | – | –
C=C(C)CNc1nc2c(-c3cc4c([nH]3)CCNC4=O)cccc2nc1C [Example 135, 2-(2-methyl-3-((2-methylallyl)amino)quinoxalin-5-yl)-6,7-dihydro-1H-pyrrolo[3,2-c]pyridin-4(5H)-one] | – | – | 7.6 | 4.7 | – | 217 | – | – | –
Cc1cccc(Nc2ccc3cccc(-c4cc5c([nH]4)CCNC5=O)c3n2)c1 [Example 44, 2-(2-((3-methylphenyl)amino)-8-quinolinyl)-1,5,6,7-tetrahydro-4H-pyrrolo[3,2-c]pyridin-4-one] | – | – | 7.2 | 29.2 | – | – | – | – | 13100
O=C1NCCc2[nH]c(-c3cccc4ccc(Nc5ccc(Cl)cc5)nc34)cc21 [Example 15, 2-(2-((4-chlorophenyl)amino)quinolin-8-yl)-6,7-dihydro-1H-pyrrolo[3,2-c]pyridin-4(5H)-one] | – | – | 4 | 20.4 | – | – | – | – | 3230
Cc1cccc(C)c1Nc1ccc2cccc(-c3cc4c([nH]3)CCNC4=O)c2n1 [Example 102, 2-(2-((2,6-dimethylphenyl)amino)quinolin-8-yl)-6,7-dihydro-1H-pyrrolo[3,2-c]pyridin-4(5H)-one] | – | – | 7.6 | 73.9 | – | – | – | – | 10400

Further molecules by falling IC50 [3], results first:

IC50 [1, 6] [nM] | IC50 ([2]; read-out: KMS-12-BM IC50 IP, KMS-12-BM cells, phospho-BAD (S112) vs total BAD, 1 hour 50 min with compound) [nM] | IC50 [3] [nM] | IC50 [4] [nM] | IC50 [5, 7] [nM] | IC50 [2, 8] [nM] | SMILES | IC50 [1] [nM] | IC50 [5] [nM] | IC50 [2, 9] [nM]
– | – | 16.5 | 62 | – | 12200 | O=C1NCCc2[nH]c(-c3cccc4ccc(O[C@H]5CCCNC5)nc34)cc21 [Example 92, (S)-2-(2-(piperidin-3-yloxy)quinolin-8-yl)-6,7-dihydro-1H-pyrrolo[3,2-c]pyridin-4(5H)-one] | – | – | –
– | – | 7.4 | 30.5 | – | 14400 | O=C1NCCc2[nH]c(-c3cccc4ccc(OC5CCCC5)nc34)cc21 [Example 80, 2-(2-(cyclopentyloxy)quinolin-8-yl)-6,7-dihydro-1H-pyrrolo[3,2-c]pyridin-4(5H)-one] | – | – | –
– | – | 6.7 | 17.9 | – | 3850 | O=C1NCCn2cc(-c3cccc4ccc(Nc5ccccc5)nc34)cc21 [Example 165, 7-(2-(phenylamino)quinolin-8-yl)-3,4-dihydropyrrolo[1,2-a]pyrazin-1(2H)-one] | – | – | –
– | – | 5.9 | 13.9 | – | 5530 | O=C1NCCc2[nH]c(-c3cccc4ccc(Oc5ccccc5)nc34)cc21 [Example 37, 2-(2-phenoxyquinolin-8-yl)-6,7-dihydro-1H-pyrrolo[3,2-c]pyridin-4(5H)-one] | – | – | –
– | – | 5.8 | 5.5 | – | 371 | Cc1nc2cccc(-c3cc4c([nH]3)CCNC4=O)c2nc1NC1CCCC1 [Example 130, 2-(3-(cyclopentylamino)-2-methylquinoxalin-5-yl)-6,7-dihydro-1H-pyrrolo[3,2-c]pyridin-4(5H)-one] | – | – | –
– | – | 5.2 | 32.2 | – | 15600 | O=c1[nH]ccc2[nH]c(-c3cccc4ccc(Nc5ccccc5Cl)nc34)cc12 [Example 107, 2-(2-((2-chlorophenyl)amino)quinolin-8-yl)-1H-pyrrolo[3,2-c]pyridin-4(5H)-one] | – | – | –
– | – | 4.4 | 22.6 | – | 953 | O=C1NCCc2[nH]c(-c3cccc4ccc(NC5CCOCC5)nc34)cc21 [Example 85, 2-(2-((Tetrahydro-2H-pyran-4-yl)amino)quinolin-8-yl)-6,7-dihydro-1H-pyrrolo[3,2-c]pyridin-4(5H)-one] | – | – | –
– | – | 3.8 | 14.7 | – | 1780 | Nc1ccc(-c2ccc3cccc(-c4cc5c([nH]4)CCNC5=O)c3n2)c(F)n1 [Example 87, 2-(2-(6-amino-2-fluoropyridin-3-yl)quinolin-8-yl)-6,7-dihydro-1H-pyrrolo[3,2-c]pyridin-4(5H)-one] | – | – | –
– | – | 3 | 0.9 | – | 1610 | O=C1NCCc2[nH]c(-c3c(F)ccc4ccc(Nc5cccnc5)nc34)cc21 [Example 228, 2-(7-fluoro-2-(pyridin-3-ylamino)quinolin-8-yl)-6,7-dihydro-1H-pyrrolo[3,2-c]pyridin-4(5H)-one] | – | – | –
0.7 | 2260 | 1.9 | 5.3 | 1.4 | – | Cc1nc2cccc(-c3cc4c([nH]3)CCNC4=O)c2nc1N[C@H]1CC[C@@H](N)C1 (single isomer, unassigned) [Example 142, 2-(3-((cis-3-aminocyclopentyl)amino)-2-methylquinoxalin-5-yl)-6,7-dihydro-1H-pyrrolo[3,2-c]pyridin-4(5H)-one] | – | – | –
– | – | 1.5 | 13.4 | – | 6740 | O=C1NCCc2[nH]c(-c3cccc4ccc(Nc5ccccc5Cl)nc34)cc21 [Example 108, 2-(2-((2-chlorophenyl)amino)quinolin-8-yl)-6,7-dihydro-1H-pyrrolo[3,2-c]pyridin-4(5H)-one] | – | – | –
– | – | 0.3 | 0.7 | – | 1290 | O=C1NCCc2[nH]c(-c3cccc4ccc(Nc5cccnc5)nc34)cc21 [Example 38, 2-(2-(3-pyridinylamino)-8-quinolinyl)-1,5,6,7-tetrahydro-4H-pyrrolo[3,2-c]pyridin-4-one] | – | – | –
